ChEMBL document CHEMBL5649166, “RIP3 induces apoptosis independent of pronecrotic kinase activity” (Mol Cell, 2014)

Key:
[1] = target: Ribosomal protein S6 kinase alpha-4 (Homo sapiens) (UniProt O75676); assay: Inhibition of human MSK2/RPS6KA4 using GRPRTSSFAEG as substrate at 1 uM in presence of 32P-ATP by Hotspot assay relative to control; values are per cent of control
[2] = target: Serine/threonine-protein kinase OSR1 (Homo sapiens) (UniProt O95747); assay: Inhibition of human OSR1/OXSR1 using RRHYYYDTHTNTYYLRTFGHNTRR as substrate at 1 uM in presence of 32P-ATP by Hotspot assay relative to control; values are per cent of control
[3] = target: Tyrosine-protein kinase Lck (Homo sapiens) (UniProt P06239); assay: Inhibition of human LCK using poly[Glu:Tyr] (4:1) as substrate at 1 uM in presence of 32P-ATP by Hotspot assay relative to control; values are per cent of control
[4] = target: Serine/threonine-protein kinase pim-1 (Homo sapiens) (UniProt P11309); assay: Inhibition of human PIM1 using RSRHSSYPAGT as substrate at 1 uM in presence of 32P-ATP by Hotspot assay relative to control; values are per cent of control
[5] = target: T1, Aurora kinase A (Homo sapiens) (UniProt O14965); assay: Inhibition of human Aurora A using H-LRRASLG as substrate at 1 uM in presence of 32P-ATP by Hotspot assay relative to control; values are per cent of control
T1 sequence (whole entry): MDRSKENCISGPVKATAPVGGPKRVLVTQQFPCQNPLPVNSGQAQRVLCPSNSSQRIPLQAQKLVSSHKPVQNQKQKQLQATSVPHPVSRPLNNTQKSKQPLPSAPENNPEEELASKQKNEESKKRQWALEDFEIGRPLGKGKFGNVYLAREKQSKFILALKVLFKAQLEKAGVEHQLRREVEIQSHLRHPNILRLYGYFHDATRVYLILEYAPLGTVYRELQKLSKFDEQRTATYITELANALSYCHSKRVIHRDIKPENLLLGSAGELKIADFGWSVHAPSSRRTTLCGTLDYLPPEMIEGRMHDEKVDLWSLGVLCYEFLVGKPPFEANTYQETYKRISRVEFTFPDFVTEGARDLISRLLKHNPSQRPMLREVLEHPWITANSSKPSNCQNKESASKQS

[6] = target: T2, Calcium/calmodulin-dependent protein kinase type IV (Homo sapiens) (UniProt Q16566); assay: Residual activity of human CAMK4 using KKLNRTLSFAEPG as substrate at 1 uM in presence of 32P-ATP by Hotspot assay relative to control
T2 sequence (whole entry): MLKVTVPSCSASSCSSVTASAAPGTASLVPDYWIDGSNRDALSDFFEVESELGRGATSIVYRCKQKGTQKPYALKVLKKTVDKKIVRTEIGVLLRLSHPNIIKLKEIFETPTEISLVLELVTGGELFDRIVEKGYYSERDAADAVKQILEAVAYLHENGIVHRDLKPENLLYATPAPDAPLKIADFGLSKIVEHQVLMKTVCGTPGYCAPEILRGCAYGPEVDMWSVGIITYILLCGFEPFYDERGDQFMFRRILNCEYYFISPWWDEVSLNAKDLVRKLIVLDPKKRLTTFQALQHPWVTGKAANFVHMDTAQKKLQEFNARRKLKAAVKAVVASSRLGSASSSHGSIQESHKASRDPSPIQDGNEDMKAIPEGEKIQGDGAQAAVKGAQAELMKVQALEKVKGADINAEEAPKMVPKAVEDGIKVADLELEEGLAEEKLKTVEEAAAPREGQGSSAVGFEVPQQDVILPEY

[7] = target: Mitogen-activated protein kinase kinase kinase 8 (Homo sapiens) (UniProt P41279); assay: Inhibition of human COT1/MAP3K8 using MEK1 (K97R) as substrate at 1 uM in presence of 32P-ATP by Hotspot assay relative to control; values are per cent of control
[8] = target: Serine/threonine-protein kinase PAK 2 (Homo sapiens) (UniProt Q13177); assay: Inhibition of human PAK2 using RRRLSFAEPG as substrate at 1 uM in presence of 32P-ATP by Hotspot assay relative to control; values are per cent of control
[9] = target: Ephrin type-A receptor 5 (Homo sapiens) (UniProt P54756); assay: Inhibition of human EPHA5 using poly[Glu:Tyr] (4:1) as substrate at 1 uM in presence of 32P-ATP by Hotspot assay relative to control; values are per cent of control
[10] = target: Serine/threonine-protein kinase PAK 3 (Homo sapiens) (UniProt O75914); assay: Inhibition of human PAK3 using RRRLSFAEPG as substrate at 1 uM in presence of 32P-ATP by Hotspot assay relative to control; values are per cent of control
[11] = target: CDK1/Cyclin A (Homo sapiens) (UniProt P06493+P20248); assay: Inhibition of human CDK1/cyclin A using RB Protein as substrate at 1 uM in presence of 32P-ATP by Hotspot assay relative to control; values are per cent of control
Sequence of CDK1/Cyclin A (Homo sapiens) (P06493 whole entry, looked up): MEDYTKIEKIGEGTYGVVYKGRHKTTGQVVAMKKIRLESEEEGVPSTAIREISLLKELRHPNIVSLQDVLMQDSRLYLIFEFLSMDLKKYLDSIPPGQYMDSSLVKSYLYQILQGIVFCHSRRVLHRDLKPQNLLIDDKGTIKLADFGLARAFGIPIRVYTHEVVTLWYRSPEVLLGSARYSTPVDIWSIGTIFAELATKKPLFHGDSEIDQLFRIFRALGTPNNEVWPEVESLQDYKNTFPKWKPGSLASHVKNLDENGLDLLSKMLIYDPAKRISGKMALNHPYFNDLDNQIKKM
Sequence of CDK1/Cyclin A (Homo sapiens) (P20248 whole entry, looked up): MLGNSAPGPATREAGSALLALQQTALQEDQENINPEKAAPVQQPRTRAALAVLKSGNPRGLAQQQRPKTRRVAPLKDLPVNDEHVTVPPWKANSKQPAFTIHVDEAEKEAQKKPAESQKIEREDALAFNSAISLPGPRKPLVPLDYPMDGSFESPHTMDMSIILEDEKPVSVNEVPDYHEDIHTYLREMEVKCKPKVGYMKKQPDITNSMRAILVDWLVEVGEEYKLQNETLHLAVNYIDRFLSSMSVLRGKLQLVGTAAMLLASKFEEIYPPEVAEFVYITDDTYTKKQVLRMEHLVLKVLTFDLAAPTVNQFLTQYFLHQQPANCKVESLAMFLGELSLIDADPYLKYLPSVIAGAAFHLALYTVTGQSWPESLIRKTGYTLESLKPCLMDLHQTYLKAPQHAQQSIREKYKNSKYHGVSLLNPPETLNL

Sequence of Serine/threonine-protein kinase PAK 3 (Homo sapiens) (O75914 whole entry, looked up): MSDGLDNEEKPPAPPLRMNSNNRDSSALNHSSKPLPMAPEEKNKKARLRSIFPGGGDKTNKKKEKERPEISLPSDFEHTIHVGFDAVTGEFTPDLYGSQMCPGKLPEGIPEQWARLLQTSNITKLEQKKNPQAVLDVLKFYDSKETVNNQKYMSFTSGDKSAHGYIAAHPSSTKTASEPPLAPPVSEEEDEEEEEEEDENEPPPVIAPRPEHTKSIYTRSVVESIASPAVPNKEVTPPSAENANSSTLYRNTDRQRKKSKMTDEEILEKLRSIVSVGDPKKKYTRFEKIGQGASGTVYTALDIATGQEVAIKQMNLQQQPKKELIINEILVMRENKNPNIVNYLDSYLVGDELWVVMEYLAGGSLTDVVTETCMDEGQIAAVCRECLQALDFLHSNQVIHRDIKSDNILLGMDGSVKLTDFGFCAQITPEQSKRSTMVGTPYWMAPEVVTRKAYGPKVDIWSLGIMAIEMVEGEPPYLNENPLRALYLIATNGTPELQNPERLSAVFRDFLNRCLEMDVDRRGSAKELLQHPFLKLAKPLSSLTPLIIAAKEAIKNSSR
Sequence of Ephrin type-A receptor 5 (Homo sapiens) (P54756 whole entry): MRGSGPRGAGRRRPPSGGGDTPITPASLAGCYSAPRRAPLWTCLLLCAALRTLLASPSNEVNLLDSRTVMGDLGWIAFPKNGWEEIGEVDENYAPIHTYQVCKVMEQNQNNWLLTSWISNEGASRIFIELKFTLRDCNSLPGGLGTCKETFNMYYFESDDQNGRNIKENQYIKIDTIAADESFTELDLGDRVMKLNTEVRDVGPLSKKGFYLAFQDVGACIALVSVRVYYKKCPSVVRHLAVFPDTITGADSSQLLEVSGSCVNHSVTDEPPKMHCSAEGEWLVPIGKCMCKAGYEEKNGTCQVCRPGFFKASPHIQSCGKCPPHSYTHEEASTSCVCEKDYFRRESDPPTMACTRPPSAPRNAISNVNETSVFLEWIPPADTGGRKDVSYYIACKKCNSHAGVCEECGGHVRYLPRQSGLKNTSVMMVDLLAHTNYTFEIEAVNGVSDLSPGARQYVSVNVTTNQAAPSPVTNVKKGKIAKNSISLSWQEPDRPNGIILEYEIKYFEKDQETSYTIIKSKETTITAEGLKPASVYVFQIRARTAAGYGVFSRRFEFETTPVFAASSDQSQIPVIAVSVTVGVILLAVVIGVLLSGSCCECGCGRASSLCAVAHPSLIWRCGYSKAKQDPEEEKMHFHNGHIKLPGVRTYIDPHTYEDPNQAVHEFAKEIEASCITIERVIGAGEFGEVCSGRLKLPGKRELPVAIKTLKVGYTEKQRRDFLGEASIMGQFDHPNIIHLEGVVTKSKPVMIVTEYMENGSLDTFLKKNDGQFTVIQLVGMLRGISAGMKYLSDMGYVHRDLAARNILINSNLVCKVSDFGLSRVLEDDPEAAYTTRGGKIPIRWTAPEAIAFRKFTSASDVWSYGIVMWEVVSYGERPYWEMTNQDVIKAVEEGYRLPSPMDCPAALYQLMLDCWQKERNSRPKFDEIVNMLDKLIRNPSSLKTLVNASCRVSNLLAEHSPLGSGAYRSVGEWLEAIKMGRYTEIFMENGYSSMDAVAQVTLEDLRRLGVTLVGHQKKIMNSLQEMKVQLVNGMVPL
Sequence of Ribosomal protein S6 kinase alpha-4 (Homo sapiens) (O75676 whole entry, looked up): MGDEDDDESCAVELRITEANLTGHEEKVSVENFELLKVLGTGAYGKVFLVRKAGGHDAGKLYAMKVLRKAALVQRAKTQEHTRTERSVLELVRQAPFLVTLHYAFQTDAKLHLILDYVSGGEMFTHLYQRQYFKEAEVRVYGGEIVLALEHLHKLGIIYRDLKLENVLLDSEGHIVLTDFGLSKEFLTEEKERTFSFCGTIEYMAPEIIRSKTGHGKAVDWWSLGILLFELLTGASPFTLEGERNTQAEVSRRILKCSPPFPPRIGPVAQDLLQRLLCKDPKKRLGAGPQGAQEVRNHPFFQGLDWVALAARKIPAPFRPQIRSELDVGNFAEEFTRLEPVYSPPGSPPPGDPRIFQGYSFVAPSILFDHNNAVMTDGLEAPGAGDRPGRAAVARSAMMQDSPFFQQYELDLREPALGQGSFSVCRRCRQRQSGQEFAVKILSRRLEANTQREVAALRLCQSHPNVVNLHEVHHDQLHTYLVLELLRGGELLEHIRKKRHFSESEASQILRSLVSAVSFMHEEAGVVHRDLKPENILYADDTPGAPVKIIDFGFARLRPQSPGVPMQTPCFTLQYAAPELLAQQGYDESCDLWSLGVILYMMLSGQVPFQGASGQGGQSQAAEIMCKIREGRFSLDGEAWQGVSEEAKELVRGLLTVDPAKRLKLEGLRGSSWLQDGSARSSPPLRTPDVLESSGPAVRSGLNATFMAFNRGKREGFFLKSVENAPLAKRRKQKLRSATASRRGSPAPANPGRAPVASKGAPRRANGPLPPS
Sequence of Serine/threonine-protein kinase OSR1 (Homo sapiens) (O95747 2-527 limits assumed): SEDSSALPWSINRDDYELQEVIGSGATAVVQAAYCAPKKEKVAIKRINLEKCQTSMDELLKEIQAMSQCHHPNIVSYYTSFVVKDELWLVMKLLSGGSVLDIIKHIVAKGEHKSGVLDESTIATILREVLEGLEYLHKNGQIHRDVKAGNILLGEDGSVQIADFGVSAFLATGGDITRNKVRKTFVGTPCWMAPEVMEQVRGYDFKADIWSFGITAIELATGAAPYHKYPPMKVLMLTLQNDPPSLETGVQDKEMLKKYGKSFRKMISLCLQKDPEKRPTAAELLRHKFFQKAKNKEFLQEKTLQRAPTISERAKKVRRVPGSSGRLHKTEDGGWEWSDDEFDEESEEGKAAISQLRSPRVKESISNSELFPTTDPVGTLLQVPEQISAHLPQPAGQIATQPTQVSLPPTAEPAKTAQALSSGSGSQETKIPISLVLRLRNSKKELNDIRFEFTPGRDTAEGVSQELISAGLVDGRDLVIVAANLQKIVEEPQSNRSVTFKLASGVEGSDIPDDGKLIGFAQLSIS
Sequence of Tyrosine-protein kinase Lck (Homo sapiens) (P06239 2-509 limits assumed): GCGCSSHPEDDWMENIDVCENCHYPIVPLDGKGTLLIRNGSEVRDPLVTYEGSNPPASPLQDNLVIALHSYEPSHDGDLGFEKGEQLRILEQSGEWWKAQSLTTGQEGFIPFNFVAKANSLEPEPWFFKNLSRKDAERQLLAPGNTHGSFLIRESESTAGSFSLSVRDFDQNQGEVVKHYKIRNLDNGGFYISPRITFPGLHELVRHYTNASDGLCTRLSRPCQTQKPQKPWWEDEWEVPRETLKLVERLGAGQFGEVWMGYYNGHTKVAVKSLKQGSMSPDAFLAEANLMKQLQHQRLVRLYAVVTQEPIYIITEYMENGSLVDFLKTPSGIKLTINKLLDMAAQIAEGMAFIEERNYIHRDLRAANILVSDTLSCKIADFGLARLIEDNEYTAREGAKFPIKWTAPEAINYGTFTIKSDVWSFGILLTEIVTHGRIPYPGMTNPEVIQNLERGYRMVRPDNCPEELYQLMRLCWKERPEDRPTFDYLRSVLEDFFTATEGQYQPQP
Sequence of Serine/threonine-protein kinase PAK 2 (Homo sapiens) (Q13177 whole entry): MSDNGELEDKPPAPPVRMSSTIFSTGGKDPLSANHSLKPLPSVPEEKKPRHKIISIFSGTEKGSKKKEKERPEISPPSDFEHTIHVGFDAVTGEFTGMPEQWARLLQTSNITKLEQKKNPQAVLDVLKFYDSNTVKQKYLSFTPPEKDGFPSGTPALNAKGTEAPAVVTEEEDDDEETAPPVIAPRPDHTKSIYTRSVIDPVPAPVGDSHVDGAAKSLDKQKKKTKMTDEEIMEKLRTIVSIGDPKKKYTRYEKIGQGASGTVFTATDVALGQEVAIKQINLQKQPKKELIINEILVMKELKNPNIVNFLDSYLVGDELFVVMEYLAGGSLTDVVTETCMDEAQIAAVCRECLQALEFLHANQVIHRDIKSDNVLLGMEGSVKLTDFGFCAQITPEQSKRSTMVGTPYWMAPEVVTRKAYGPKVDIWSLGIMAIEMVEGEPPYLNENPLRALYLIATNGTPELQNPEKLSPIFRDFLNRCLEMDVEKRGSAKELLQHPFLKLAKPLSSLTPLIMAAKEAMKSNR
Sequence of Serine/threonine-protein kinase pim-1 (Homo sapiens) (P11309 whole entry, looked up): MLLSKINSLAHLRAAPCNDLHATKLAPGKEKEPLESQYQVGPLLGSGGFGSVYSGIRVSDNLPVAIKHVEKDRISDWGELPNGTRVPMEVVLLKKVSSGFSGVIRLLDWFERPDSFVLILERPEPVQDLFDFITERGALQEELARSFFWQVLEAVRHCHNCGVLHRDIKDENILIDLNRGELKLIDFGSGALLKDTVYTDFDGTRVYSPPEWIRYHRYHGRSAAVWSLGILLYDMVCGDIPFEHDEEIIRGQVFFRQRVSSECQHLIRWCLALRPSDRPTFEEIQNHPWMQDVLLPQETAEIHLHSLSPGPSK

| SMILES | residual activity [1] [%] | residual activity [2] [%] | residual activity [3] [%] | residual activity [4] [%] | residual activity [5] [%] | residual activity [6] [%] | residual activity [7] [%] | residual activity [8] [%] | residual activity [9] [%] | residual activity [10] [%] | residual activity [11] [%] |
| --- | --- | --- | --- | --- | --- | --- | --- | --- | --- | --- | --- |
| Cc1cc(-c2cnc(N)c3c(-c4ccc5scnc5c4)csc23)n(C)n1 | 99.3 | 97.4 | 17.3 | 98.4 | 99 | 88.6 | 106 | 96.2 | 53.4 | 96.6 | 98.9 |
| CC(C)S(=O)(=O)c1ccc2nccc(Nc3ccc4scnc4c3)c2c1 | 95.4 | 97.8 | 39.4 | 96.4 | 95.9 | 91 | 85.2 | 101 | 70.6 | 97.8 | 88.6 |
| CNC(=O)c1ccc2c(c1)ncn2-c1ccc(CC(=O)OC(C)(C)C)cc1 | 96.9 | 98.2 | 13.1 | 98.5 | 101 | 91.8 | 108 | 91 | 96.7 | 105 | 94.5 |
